We go through 34 molecules from patent US4789667A, “External pharmaceutical composition and methods of use” (priority 1984, dated 1988).

The nature of data set [1]: Drug diffusion through egg shell membrane in diffusion cell with dodecyl L-pyroglutamate. The following applies: control without enhancer = 100; drug 0.05%, dodecyl L-pyroglutamate 1.0% in donor side, 37° C.
Data set [2] relates to carrageenan-induced edema. As to the kind of experiment: Carrageenan-induced edema inhibiting effect of betamethasone valerate ointment. The data set is classed as in vivo. The following applies: rat paw, 0.15 part betamethasone valerate, 9.85 parts enhancer, vs gel ointment base. As to the method:
The carrageenan-induced edema inhibiting effect of the ointment was examined in accordance with the method of E. Passarella [Arzneim, Forsch. 30 (I), No. 4, pages 647-651 (1980)]. Specifically, 0.1 ml of a 1% carrageenan suspension in 0.9% NaCl solution was injected into the tip of the right paw of each rat (body weight 150-175 g). The volume of the paw was measured before the administation of carrageenan and 3, 5 and 6 hours after the carrageenan administration by a mercury displacement device. The ointment was well rubbed into the inflamed site in an amount of 100 mg.
These ointments were applied to the tip of the paw, and their edema inhibiting effects were examined.
The percent edema inhibitions were calculated on the basis of the edema formation ratio of a rat to which only the gel ointment base was administered.

The next data set deals with serum calcium level. The data set is classed as in vivo.

Read-outs that look alike come from different tables or passages of the source.

Procedure for serum calcium level: This nasal drop contained 15 units/50 microliters of calcitonin. The nasal drop in a dose of 50 microliters was administered to the nasal cavity of a New Zealand rabbit (clean). The calcium concentration in the serum after administration was measured by using a calcium measuring kit (Iatoron Co.).
They were individually administered to the nasal cavity of a rabbit, and the concentration of calcium in the serum was measured.

In the case of `O=C(O)c1ccccc1O` [Salicyclic acid], the “Relative amount of permeation after 30 minutes” value (shortened to “Relative amount of permeation”) in data set [1] came out at 208.

Take `CCCCCCCCCCCCCOC(=O)[C@@H]1CCC(=O)N1` [Compound (118), Tridecyl L-pyroglutamate]: the Edema inhibition is given as 20.0% in data set [2] (3 hrs.), 38.5% in data set [2] (6 hrs.) and 36.8% in data set [2] (9 hrs.).

On to `CCCCC[C@H](O)/C=C/[C@@H]1[C@@H](C/C=C\CCCC(=O)O)[C@@H](O)C[C@H]1O` [Prostaglandin F2], for which the “Relative amount of permeation” value in data set [1] worked out at 166.

Consider `CCCCCCCCCCOC(=O)[C@@H]1CCC(=O)N1` [Compound (112), Decyl L-pyroglutamate], for which the Edema inhibition is recorded as 18.6% in data set [2] (3 hrs.), 38.9% in data set [2] (6 hrs.) and 37.4% in data set [2] (9 hrs.).

`CCC=CCCCCCCCCOC(=O)[C@@H]1CCC(=O)N1` [Compound (220), 9-Dodecenyl L-pyroglutamate]: the Edema inhibition in data set [2] (3 hrs.) was 18.3%; in data set [2] (6 hrs.), 37.7%; in data set [2] (9 hrs.), 36.9%.

Consider `CCCCCCCCCCCCCCCCCCOC(=O)C1CCC(=O)N1` (racemic) [Octadecyl DL-pyroglutamate], for which the Edema inhibition in data set [2] (3 hrs.) was determined as 9.6%; in data set [2] (6 hrs.) it was 13.0%; in data set [2] (9 hrs.) it was 15.6%.

Turning to `CC1CCC(C(C)C)C(OC(=O)[C@@H]2CCC(=O)N2)C1` (stereo partly drawn) [Compound (308), Menthyl L-pyroglutamate], the Edema inhibition in data set [2] (3 hrs.) was determined as 17.0%; in data set [2] (6 hrs.) it was 38.0%; in data set [2] (9 hrs.), 40.2%.

`CCCCCCOC(=O)C1CCC(=O)N1` (racemic) [Hexyl DL-pyroglutamate]: the Edema inhibition in data set [2] (3 hrs.) stood at 11.2%; in data set [2] (6 hrs.), 11.5%; in data set [2] (9 hrs.), 11.0%.

Turning to `C[C@]12CC[C@@H]3c4ccc(O)cc4CC[C@H]3[C@@H]1CC[C@@H]2O` [Estradiol], the “Relative amount of permeation” value in data set [1] was 203.

Regarding `CC1(C)C2CCC1(C)C(OC(=O)[C@@H]1CCC(=O)N1)C2` (stereo partly drawn) [Compound (310), Bornyl L-pyroglutamate], the Edema inhibition in data set [2] (3 hrs.) came to 17.0%; in data set [2] (6 hrs.) it was 39.4%; in data set [2] (9 hrs.), 40.2%.

Consider `CCCCCCCOC(=O)[C@@H]1CCC(=O)N1` [Heptyl L-pyroglutamate], for which the figures for the Edema inhibition in data set [2] (3 hrs.), in data set [2] (6 hrs.) and in data set [2] (9 hrs.) were 9.3%, 12.8% and 13.7%, respectively.

Regarding `CCCCCCCCCCCCCCOC(=O)[C@@H]1CCC(=O)N1` [Compound (120), Tetradecyl L-pyroglutamate], the values for the Edema inhibition in data set [2] (3 hrs.), in data set [2] (6 hrs.) and in data set [2] (9 hrs.) were 17.8%, 38.5% and 39.6%, respectively.

For `CCCCCCCCCCCCOC(=O)[C@@H]1CCC(=O)N1` [Compound (116), Dodecyl L-pyroglutamate], the figures for the Edema inhibition in data set [2] (3 hrs.), in data set [2] (6 hrs.) and in data set [2] (9 hrs.) were 19.8%, 40.2% and 40.3%, respectively.

For `CCCCCCCCCCCCCCCCCCOC(=O)[C@@H]1CCC(=O)N1` [Octadecyl L-pyroglutamate], the Edema inhibition is recorded as 10.0% in data set [2] (3 hrs.), 11.4% in data set [2] (6 hrs.) and 14.4% in data set [2] (9 hrs.).

As to `CCCCCCCCCCCCCCCCCOC(=O)[C@@H]1CCC(=O)N1` [Heptadecyl L-pyroglutamate], the Edema inhibition in data set [2] (3 hrs.) is recorded as 11.2%; in data set [2] (6 hrs.), 10.6%; in data set [2] (9 hrs.), 16.5%.

In the case of `O=C1CCC(C(=O)O)N1` (racemic) [DL-Pyroglutamic acid], the “Percent decrease of the serum calcium level from that before administration” value with serum calcium level (1 h) came to 2.0%; in the data set with serum calcium level (2 h) it was 1.0%; in the data set with serum calcium level (3 h) it was 0%; with serum calcium level (5 h) it was 0%. Further, the Edema inhibition is 10.8% in data set [2] (3 hrs.), 11.4% in data set [2] (6 hrs.) and 15.2% in data set [2] (9 hrs.).

As to `CCCCCCCCCCCCCOC(=O)C1CCC(=O)N1` (racemic) [Compound (108), Tridecyl DL-pyroglutamate], the values for the Edema inhibition in data set [2] (3 hrs.), in data set [2] (6 hrs.) and in data set [2] (9 hrs.) were 18.8%, 35.3% and 38.1%, respectively.

In the case of `CCCCCCCCCCCCCCCCCCCCOC(=O)[C@@H]1CCC(=O)N1` [Eicosanyl L-pyroglutamate], the Edema inhibition turned out to be 9.3% in data set [2] (3 hrs.), 10.5% in data set [2] (6 hrs.) and 15.6% in data set [2] (9 hrs.).

With `CCCCCCOC(=O)[C@@H]1CCC(=O)N1` [Hexyl L-pyroglutamate], the Edema inhibition amounted to 10.0% in data set [2] (3 hrs.), 11.5% in data set [2] (6 hrs.) and 13.8% in data set [2] (9 hrs.).

Regarding `CCCCCCCOC(=O)C1CCC(=O)N1` (racemic) [Heptyl DL-pyroglutamate], the figures for the Edema inhibition in data set [2] (3 hrs.), in data set [2] (6 hrs.) and in data set [2] (9 hrs.) were 10.7%, 10.9% and 9.5%, respectively.

With `COc1ccc2c(c1)c(CC(=O)O)c(C)n2C(=O)c1ccc(Cl)cc1` [Indomethacin], in data set [1], the “Relative amount of permeation” value is recorded as 220.

With `CCCCCCCCCCCOC(=O)[C@@H]1CCC(=O)N1` [Compound (114), Undecyl L-pyroglutamate], the Edema inhibition in data set [2] (3 hrs.) is listed as 20.2%; in data set [2] (6 hrs.), 38.5%; in data set [2] (9 hrs.), 37.3%.

`CCCCCCCCCCCCCCCCCCCCOC(=O)C1CCC(=O)N1` (racemic) [Eicosanyl DL-pyroglutamate]: the figures for the Edema inhibition in data set [2] (3 hrs.), in data set [2] (6 hrs.) and in data set [2] (9 hrs.) were 9.2%, 11.1% and 16.7%, respectively.

Consider `O=C1CC[C@@H](C(=O)O)N1` [L-Pyroglutamic acid], for which the “Percent decrease of the serum calcium level from that before administration” value in the data set with serum calcium level (1 h) came to 1.9%; with serum calcium level (2 h), 0.7%; with serum calcium level (3 h), 0%; with serum calcium level (5 h), 0%. For the same molecule, the Edema inhibition is listed as 10.3% in data set [2] (3 hrs.), 11.2% in data set [2] (6 hrs.) and 16.3% in data set [2] (9 hrs.).

In the case of `C[C@](N)(Cc1ccc(O)c(O)c1)C(=O)O` [Methyldopa], the “Relative amount of permeation” value in data set [1] is 153.

Take `CCCCCCCCCCCOC(=O)C1CCC(=O)N1` (racemic) [Compound (104), Undecyl DL-pyroglutamate]: the Edema inhibition in data set [2] (3 hrs.) is on record as 20.3%; in data set [2] (6 hrs.), 40.1%; in data set [2] (9 hrs.) it was 35.4%.

Turning to `CN(C)CCCN1c2ccccc2Sc2ccc(Cl)cc21` [Chlorpromazine], in data set [1], the “Relative amount of permeation” value was determined as 124.

As for `CCCCCCCCCCCCCCCCCOC(=O)C1CCC(=O)N1` (racemic) [Heptadecyl DL-pyroglutamate], the Edema inhibition is 10.5% in data set [2] (3 hrs.), 12.8% in data set [2] (6 hrs.) and 14.8% in data set [2] (9 hrs.).

Take `CCOC(=O)[C@@H]1CCC(=O)N1` [Ethyl L-pyroglutamate]: the Edema inhibition in data set [2] (3 hrs.) is 10.4%; in data set [2] (6 hrs.), 12.7%; in data set [2] (9 hrs.), 17.2%.

As for `CCCCCCCCCCCCCCOC(=O)C1CCC(=O)N1` (racemic) [Compound (110), Tetradecyl DL-pyroglutamate], the Edema inhibition in data set [2] (3 hrs.) is recorded as 17.4%; in data set [2] (6 hrs.), 38.0%; in data set [2] (9 hrs.), 38.6%.

As to `CCCCCCCCCCCCOC(=O)C1CCC(=O)N1` (racemic) [Compound (106), Dodecyl DL-pyroglutamate], the figures for the Edema inhibition in data set [2] (3 hrs.), in data set [2] (6 hrs.) and in data set [2] (9 hrs.) were 17.4%, 40.1% and 40.0%, respectively.

Consider `CCCCCCCCCCOC(=O)C1CCC(=O)N1` (racemic) [Compound (102), Decyl DL-pyroglutamate], for which the Edema inhibition in data set [2] (3 hrs.) was 16.3%; in data set [2] (6 hrs.), 39.7%; in data set [2] (9 hrs.) it was 38.3%.

On to `COC1=CC(=O)C[C@@H](C)[C@]12Oc1c(Cl)c(OC)cc(OC)c1C2=O` [Griseofulvin], for which, in data set [1], the “Relative amount of permeation” value is 221.

For the molecule `CCOC(=O)C1CCC(=O)N1` (racemic) [Ethyl DL-pyroglutamate], the Edema inhibition in data set [2] (3 hrs.) was 9.5%; in data set [2] (6 hrs.) it was 10.2%; in data set [2] (9 hrs.), 12.1%.
